Reference: patent US20090325894A1 (priority 2007, published 2009)
Like-named read-outs stand apart in the source and are kept apart here.

Assays:
LoVo cells = experiment: Cell growth inhibition assay (MTS assay), LoVo cells; type: cell-based, Human; conditions: 48 hours, RPMI1640-SIT serum-free medium, read-out: Half maximal inhibitory concentration (IC50) LoVo cells
Method: (§1) Cell Growth Inhibition Assay (MTS Assay)
(§2) 1. Cell Strain and Reagents
LoVo: Human colorectal adenocarcinoma cell line (ATCC catalog # CCL-229);
(§3) SIT solution (SIGMA), RPMI 1640 culture solution, Phosphate buffer, Dimethyl sulfoxide (DMSO), MTS solution (Promega), 96-well cell culture plate;
(§4) Anti-tumor compounds: synthesized by Tianjin Hemay Bio-tech Co., Ltd.;
(§5) Positive control drugs: doxorubicin (Zhejiang Hisun Pharmaceutical Co., Ltd).
(§6) The above-mentioned cells were cultured for several days (RPMI 1640, 10% of bovine serum), collected and suspended in RPMI1640-SIT serum-free medium, placed into a 96-well cell culture plate with each well containing about 20,000 cells/100 μL. The cells were cultured overnight at 5% CO2 and 37° C. The next day, representative antitumor compounds (between 3 and 10 mM) were dissolved in dimethyl sulphoxide (DMSO) to obtain a mother solution. Doxorubicin was used as positive control, DMSO was used as negative control.
(§7) The mother solution was diluted and added to the 96 well cell culture plate, culture for 48 hours at 5% CO2 and 37° C. Subsequently, 20 μL of MTS solution was added to each well of the 96 well cell culture plate and cultured for another 2 to 4 hours at 5% CO2 and 37° C. Absorbance was read at 490 nm wavelength, and converted into cell survival rate.
(§8) Calculation of Percent Inhibition:
(§9) %inhibition=100−[reading of absorbance(compound)/reading of absorbance(blank)]×100
(§10) For each concentration, there two measurements were taken and the average value was recorded. The half maximal inhibitory concentration (IC50) of cell growth was calculated by cell growth inhibition curve.

HeLa cells = experiment: Cell growth inhibition assay (MTS assay), HeLa cells; type: cell-based, Human; conditions: 48 hours, RPMI1640-SIT serum-free medium, read-out: Half maximal inhibitory concentration (IC50) HeLa cells
Method: as §1, §2
HeLa: Human adenocarcinoma cell line (ATCC catalog # CCL-2);
as §3, §4, §5, §6, §7, §8, §9, §10

SW620 cells = experiment: Cell growth inhibition assay (MTS assay), SW620 cells; type: cell-based, Human; conditions: RPMI1640-SIT serum-free medium, read-out: Half maximal inhibitory concentration (IC50) SW620 cells
Method: as §1, §2
SW620: Human colorectal adenocarcinoma cell line;
as §3, §4, §5, §6, §7, §8, §9, §10

Solubility in water = type: physicochemical

Compound	IC50 (LoVo cells) [µM]	also measured
Linoleic acyl-L-Alanyl-L-Valyl-Doxorubicin bissuccinate [Example 80]	20	IC50 (HeLa cells): > 100 µM
Oleoyl-L-Alanyl-L-Vayl-Doxorubicin maleate [Example 98]	30	–
Bissodium 4-(2-(2-oleoylaminoethoxy)ethylamino)-4-oxo-butanoyl-L-Alanyl-L-Valyl-Doxorubicin bissuccinate [Example 112]	2	IC50 (SW620 cells; 48 hours): 1.5 µM; IC50 (HeLa cells): 3 µM
4-(2-oleoylaminoethylamino)-4-oxo-butanoyl-L-Alanyl-L-Valyl-Doxorubicin bissuccinate [Example 79]	50	–
Oleoyl-Glycyl-L-Alanyl-L-Valyl-Doxorubicin bissuccinate [Example 74]	8	–
Oleoyl-L-Alanyl-L-Valyl-Doxorubicin bis(2-carboxyl-3,4,5,6-tetrafluorobenzoate) [Example 97]	10	–
Bissodium linolenic acyl-L-Alanyl-L-Valyl-Doxorubicin bissuccinate [Example 109]	12	–
4-(2-(2-oleoylaminoethoxy)ethylamino)-4-oxo-butanoyl-L-Alanyl-L-Valyl-Doxorubicin bissuccinate [Example 77]	12	IC50 (HeLa cells): 75 µM
DHA acyl-L-Alanyl-L-Valyl-Doxorubicin bissuccinate [Example 82]	25	–
Oleoyl-L-Alanyl-L-Valyl-Doxorubicin bissuccinate [Example 70]	20	IC50 (HeLa cells): > 100 µM
CCCCCCCC/C=C\CCCCCCCC(=O)NCCOCCOCCOCCOCCOCCOCC(=O)N[C@@H](C)C(=O)N[C@H](C(=O)NC1CC(OC2CC(O)(C(=O)COC(=O)CCC(=O)O)Cc3c(O)c4c(c(O)c32)C(=O)c2c(OC)cccc2C4=O)OC(C)C1OC(=O)CCC(=O)O)C(C)C (stereo partly drawn) [Example 86, 2-(2-(2-(2-(2-(2-(2-oleoylamino-ethoxy)ethoxy)ethoxy)ethoxy)ethoxy)ethoxy)actyl-L-Alanyl-L-Valyl-Doxorubicin bissuccinate]	2.5	–
Bissodium linoleic acyl-L-Alanyl-L-Valyl-Doxorubicin bissuccinate [Example 108]	15	–
COc1cccc2c1C(=O)c1c(O)c3c(c(O)c1C2=O)CC(O)(C(=O)CO)CC3OC1CC(NC(=O)[C@@H](NC(=O)[C@H](C)NC(=O)CCC(=O)NCCNC(=O)CCC(=O)NCCNC(=O)OC(C)(C)C)C(C)C)C(O)C(C)O1 (stereo partly drawn) [Example 58, 4-(2-(4-(2-tert-butoxycarbonyl-aminoethylamino)-4-oxo-butanoylamino)ethylamino)-4-oxo-butanoyl-L-Alanyl-L-Valyl-Doxorubicin]	75	–
(4-(2-oleoylaminoethylamino)-4-oxo-butanoyl)-L-Alanyl-L-Valyl-Doxorubicin [Example 57]	> 100	–
2-(2-(2-(2-(2-(2-(2-oleoylaminoethoxy)ethoxy)ethoxy)ethoxy)ethoxy)ethoxy)acetyl-L-Alanyl-L-Valyl-Doxorubicin [Example 68]	30	–
(4-(2-(2-oleoylaminoethoxy)ethylamino)-4-oxo-butanoyl)-L-Alanyl-L-Valyl-Doxorubicin [Example 54]	25	–
CCCCCCCCC=CCCCCCCCC(=O)NCCNC(=O)CCC(=O)NCCNC(=O)CCC(=O)NC(C)C(=O)NC(C(=O)NC1CC(OC2CC(O)(C(=O)CO)Cc3c(O)c4c(c(O)c32)C(=O)c2c(OC)cccc2C4=O)OC(C)C1O)C(C)C [Example 59, 4-(2-(4-(2-oleoylaminoethylamino)-4-oxo-butanoylamino)ethylamino)-4-oxo-butanoyl-L-Alanyl-L-Valyl-Doxorubicin]	> 100	–
Oleoyl-L-Alanyl-L-Valyl-Epirubicin bissuccinate [Example 75]	0.8	–
Oleoyl-L-Alanyl-L-Valyl-Daunorubicin bissuccinate [Example 76]	10	–
COc1cccc2c1C(=O)c1c(O)c3c(c(O)c1C2=O)C[C@@](O)(C(=O)CO)C[C@@H]3O[C@H]1C[C@H](N)[C@H](O)[C@H](C)O1 [Doxorubicin, doxorubicin, reference compound]	–	IC50 (LoVo cells; Homo sapiens, LoVo): 2.6 µM; IC50 (SW620 cells; Homo sapiens, SW-620, 48 hours): 0.65 µM; IC50 (HeLa cells; Homo sapiens, HeLa): 0.3 µM
Trisodium 4-(2-(2-oleoylaminoethoxy)ethylamino)-4-oxo-butanoyl-L-Alanyl-L-Valyl-Doxorubicin trisuccinate [Example 121]	10	IC50 (HeLa cells): 5 µM
Linolenic acyl-L-Alanyl-L-Valyl-Doxorubicin bissuccinate [Example 81]	18	–
(4-(2-(2-oleoylaminoethoxy)ethoxy)-4-oxo-butanoyl)-L-Alanyl-L-Valyl-Doxorubicin [Example 69]	25	IC50 (SW620 cells; 48 hours): 12 µM; IC50 (HeLa cells): > 100 µM
Bissodium oleoyl-L-Alanyl-L-Valyl-Doxorubicin bis(2-carboxyl-3,4,5,6-tetrafluorobenzoate) [Example 119]	–	solubility in water (Solubility in water): more than 1 mg/mL
